Results published in patent US20090136570A1, “Taste-Masked Tablets and Granules” (priority 2006, published 2009).

Assay: Hygroscopicity, VTI vapor sorption analyzer
Format: physicochemical
Experimental: Hygroscopicity data was obtained on a VTI Symmetrical Vapor Sorption Analyzer Model SGA-1. Data was collected at room temperature from 5-95% relative humidity and back, 5% relative humidity change per step. Equilibrium conditions were 0.01 weight percent change in 5 minutes with a maximum equilibration time of 180 minutes. […] When equilibrated back down to 5% RH, the material returned back to approximately its dry weight.

In the case of `Cc1nnc(C(=O)NC(C)(C)c2nc(C(=O)NCc3ccc(F)cc3)c(O)c(=O)n2C)o1`, the “weight increase when equilibrated at 95% RH” value (95% RH at 25° C.) is reported as 1.8% and the “XRPD analysis of the material after the hygroscopicity experiment (phase stability)” value (after 5-95% relative humidity cycle at room temperature) is reported as “had not changed phases”.
